Reference: PubChem BioAssay (NCI)
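At the GI50, growth is halved. Definition used: TGI = concentration required for complete inhibition of growth.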

Experiments:
Test in all cases: NCI anticancer screen, dose series, 384-well format
COLO 205 colon = tested on: COLO 205 colon
786-0 renal = tested on: 786-0 renal
DU-145 prostate = tested on: DU-145 prostate
SR leukemia = tested on: SR leukemia
UO-31 renal = tested on: UO-31 renal
NCI-H23 lung = tested on: NCI-H23 lung
NCI-H322M lung = tested on: NCI-H322M lung
OVCAR-4 ovarian = tested on: OVCAR-4 ovarian
ACHN renal = tested on: ACHN renal
OVCAR-3 ovarian = tested on: OVCAR-3 ovarian
M14 melanoma = tested on: M14 melanoma
TK-10 renal = tested on: TK-10 renal
NCI-H522 lung = tested on: NCI-H522 lung
SF-295 CNS = tested on: SF-295 CNS
OVCAR-5 ovarian = tested on: OVCAR-5 ovarian
SK-MEL-2 melanoma = tested on: SK-MEL-2 melanoma
T-47D breast = tested on: T-47D breast
MDA-MB-435 melanoma = tested on: MDA-MB-435 melanoma
UACC-62 melanoma = tested on: UACC-62 melanoma
PC-3 prostate = tested on: PC-3 prostate
IGROV1 ovarian = tested on: IGROV1 ovarian
NCI-H460 NSCLC = tested on: NCI-H460 NSCLC
HCT-116 colon = tested on: HCT-116 colon
RXF 393 renal = tested on: RXF 393 renal
NCI-H226 lung = tested on: NCI-H226 lung
HS 578T breast = tested on: HS 578T breast
SK-OV-3 ovarian = tested on: SK-OV-3 ovarian
CAKI-1 renal = tested on: CAKI-1 renal
MALME-3M melanoma = tested on: MALME-3M melanoma
SNB-19 CNS = tested on: SNB-19 CNS
SW-620 colon = tested on: SW-620 colon
HT29 colon = tested on: HT29 colon
MOLT-4 leukemia = tested on: MOLT-4 leukemia
EKVX NSCLC = tested on: EKVX NSCLC
SK-MEL-5 melanoma = tested on: SK-MEL-5 melanoma
MDA-MB-231 breast = tested on: MDA-MB-231 breast
HCT-15 colon = tested on: HCT-15 colon
K-562 leukemia = tested on: K-562 leukemia
MDA-MB-468 breast = tested on: MDA-MB-468 breast
HL-60(TB) leukemia = tested on: HL-60(TB) leukemia
HOP-62 NSCLC = tested on: HOP-62 NSCLC
A549 NSCLC = tested on: A549 NSCLC
HOP-92 NSCLC = tested on: HOP-92 NSCLC
SK-MEL-28 melanoma = tested on: SK-MEL-28 melanoma
KM12 colon = tested on: KM12 colon
SN12C renal = tested on: SN12C renal
SF-539 CNS = tested on: SF-539 CNS
SNB-75 CNS = tested on: SNB-75 CNS
UACC-257 melanoma = tested on: UACC-257 melanoma
SF-268 CNS = tested on: SF-268 CNS
U251 glioblastoma = tested on: U251 glioblastoma
OVCAR-8 ovarian = tested on: OVCAR-8 ovarian
BT-549 breast = tested on: BT-549 breast
A498 renal = tested on: A498 renal

Which results are given for `Nc1nc(Nc2ccc3c(c2)CC[C@@H](N2CCCC2)CC3)nn1-c1cc2c(nn1)-c1ccccc1CCC2`?
GI50 (COLO 205 colon): 1500 nM; TGI (COLO 205 colon): 2840 nM; GI50 ([…]-0 renal): 456 nM; TGI (786-0 renal): 1640 nM; GI50 (DU-145 prostate): 939 nM; TGI (DU-145 prostate): 2160 nM; GI50 (SR leukemia): 186 nM; TGI (SR leukemia): 328 nM; GI50 (UO-31 renal): 1040 nM; TGI (UO-31 renal): 2220 nM; GI50 (NCI-H23 lung): 1330 nM; TGI (NCI-H23 lung): 2610 nM; GI50 (NCI-H322M lung): 529 nM; TGI (NCI-H322M lung): 1770 nM; GI50 (OVCAR-4 ovarian): 1480 nM; TGI (OVCAR-4 ovarian): 2800 nM; GI50 (ACHN renal): 431 nM; TGI (ACHN renal): 1510 nM; GI50 (OVCAR-3 ovarian): 1150 nM; TGI (OVCAR-3 ovarian): 2370 nM; GI50 (M14 melanoma): 451 nM; TGI (M14 melanoma): 1590 nM; GI50 (TK-10 renal): 1010 nM; TGI (TK-10 renal): 2180 nM; GI50 (NCI-H522 lung): 1270 nM; TGI (NCI-H522 lung): 2540 nM; GI50 (SF-295 CNS): 634 nM; TGI (SF-295 CNS): 1940 nM; GI50 (OVCAR-5 ovarian): 1630 nM; TGI (OVCAR-5 ovarian): 3000 nM; GI50 (SK-MEL-2 melanoma): 415 nM; TGI (SK-MEL-2 melanoma): 1400 nM; GI50 (T-47D breast): 1210 nM; TGI (T-47D breast): 2450 nM; GI50 (MDA-MB-435 melanoma): 1020 nM; TGI (MDA-MB-435 melanoma): 2190 nM; GI50 (UACC-62 melanoma): 773 nM; TGI (UACC-62 melanoma): 2020 nM; GI50 (PC-3 prostate): 796 nM; TGI (PC-3 prostate): 2050 nM; GI50 (IGROV1 ovarian): 418 nM; TGI (IGROV1 ovarian): 1550 nM; GI50 (NCI-H460 NSCLC): 360 nM; TGI (NCI-H460 NSCLC): 1280 nM; GI50 (HCT-116 colon): 478 nM; TGI (HCT-116 colon): 1730 nM; GI50 (RXF 393 renal): 25.9 nM; TGI (RXF 393 renal): 545 nM; GI50 (NCI-H226 lung): 1450 nM; TGI (NCI-H226 lung): 2770 nM; GI50 (HS 578T breast): 262 nM; TGI (HS 578T breast): 1270 nM; GI50 (SK-OV-3 ovarian): 305 nM; TGI (SK-OV-3 ovarian): 1240 nM; GI50 (CAKI-1 renal): 493 nM; TGI (CAKI-1 renal): 1720 nM; GI50 (MALME-3M melanoma): 284 nM; TGI (MALME-3M melanoma): 827 nM; GI50 (SNB-19 CNS): 1590 nM; TGI (SNB-19 CNS): 2960 nM; GI50 (SW-620 colon): 1140 nM; TGI (SW-620 colon): 2370 nM; GI50 (HT29 colon): 326 nM; TGI (HT29 colon): 1080 nM; GI50 (MOLT-4 leukemia): 186 nM; TGI (MOLT-4 leukemia): 334 nM; GI50 (EKVX NSCLC): 1020 nM; TGI (EKVX NSCLC): 2190 nM; GI50 (SK-MEL-5 melanoma): 1060 nM; TGI (SK-MEL-5 melanoma): 2250 nM; GI50 (MDA-MB-231 breast): 1630 nM; TGI (MDA-MB-231 breast): 3000 nM; GI50 (HCT-15 colon): 564 nM; TGI (HCT-15 colon): 1800 nM; GI50 (K-562 leukemia): 331 nM; TGI (K-562 leukemia): 1210 nM; GI50 (MDA-MB-468 breast): 1450 nM; TGI (MDA-MB-468 breast): 2760 nM; GI50 (HL-60(TB) leukemia): 1210 nM; TGI (HL-60(TB) leukemia): 2450 nM; GI50 (HOP-62 NSCLC): 1020 nM; TGI (HOP-62 NSCLC): 2190 nM; GI50 (A549 NSCLC): 1380 nM; TGI (A549 NSCLC): 2700 nM; GI50 (HOP-92 NSCLC): 798 nM; TGI (HOP-92 NSCLC): 2070 nM; GI50 (SK-MEL-28 melanoma): 1400 nM; TGI (SK-MEL-28 melanoma): 2700 nM; GI50 (KM12 colon): 1070 nM; TGI (KM12 colon): 2290 nM; GI50 (SN12C renal): 346 nM; TGI (SN12C renal): 1680 nM; GI50 (SF-539 CNS): 244 nM; TGI (SF-539 CNS): 1110 nM; GI50 (SNB-75 CNS): 1140 nM; TGI (SNB-75 CNS): 2350 nM; GI50 (UACC-257 melanoma): 182 nM; TGI (UACC-257 melanoma): 368 nM; GI50 (SF-268 CNS): 1180 nM; TGI (SF-268 CNS): 2410 nM; GI50 (U251 glioblastoma): 761 nM; TGI (U251 glioblastoma): 2020 nM; GI50 (OVCAR-8 ovarian): 1520 nM; TGI (OVCAR-8 ovarian): 2860 nM; GI50 (BT-549 breast): 1080 nM; TGI (BT-549 breast): 2270 nM; GI50 (A498 renal): 327 nM; TGI (A498 renal): 1190 nM
